Measurements from patent publication EP4790066A1, “GLP-1R/GIPR/GCGR TRIPLE AGONIST ANALOGUE AND USE THEREOF” (Shenzhen Bay Laboratory, priority 2023, dated 2025).
*1 amine or outer side, *2 acyl side, *3 side chain or, on linkers, in order; H or OH if unused. Where a SMILES comes first, the peptide text is derived from it. Bridges are numbered along the chain shown (N, C = ends). [ ]: non-standard residue; d: D form. X1 = O=C(O)CCCCCCCCCCCCCCCCCCC(=O)N[C@@H](CCCCNC(=O)COCCOCCNC(=O)COCCOCCNC(=O)CCC(=O)N(CCNC(=O)C[*:1])CCNC(=O)C[*:2])C(=O)O; tBuAla = CC(C)(C)C[C@H](N)C(=O)O; αMeL = CC(C)C[C@](C)(N)C(=O)O; Aib = CC(C)(N)C(=O)O

Legend:
Assay type in all cases: cell-based
GLP-1R = molecular target: T1, GLP-1R (Homo sapiens, UniProt P43220); experiment: CreLuc method (CRE-luciferase reporter), HEK293/pGM-CREB-L-Luc/GLP-1R pool; conditions: 6 h incubation, read-out: EC50 (pM) for each receptor GLP-1R
T1 construct: expressed in transfected cells
T1 sequence (P43220 24-463, species assumed): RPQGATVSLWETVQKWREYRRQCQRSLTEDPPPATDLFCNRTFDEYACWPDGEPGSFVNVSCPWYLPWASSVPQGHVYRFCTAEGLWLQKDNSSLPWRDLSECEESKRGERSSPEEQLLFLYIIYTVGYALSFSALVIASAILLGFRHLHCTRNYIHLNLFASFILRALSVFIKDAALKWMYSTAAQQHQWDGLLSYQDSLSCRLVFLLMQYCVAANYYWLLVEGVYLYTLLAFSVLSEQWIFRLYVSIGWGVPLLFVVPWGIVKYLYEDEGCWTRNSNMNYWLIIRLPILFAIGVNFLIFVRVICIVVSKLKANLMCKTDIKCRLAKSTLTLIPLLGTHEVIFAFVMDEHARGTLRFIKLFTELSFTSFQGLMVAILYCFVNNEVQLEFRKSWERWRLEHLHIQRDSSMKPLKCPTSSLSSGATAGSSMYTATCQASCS
Experimental: (§1) 1. Insulinotropic analogues can bind to the target receptor on the cell membrane, activate the cAMP response element (CRE), and initiate the expression of downstream luciferase. The expression level is positively correlated with the biological activity of the analogue being tested. After activation, luciferase substrate is added for chemiluminescence detection, and the luminescence intensity is determined to characterize the biological activity of the test compounds. Therefore, the target peptide derivatives (or polypeptide derivatives, i.e., TG1-TG94) prepared in Example 1 and Example 2 can be tested by the CreLuc method. The specific steps are as follows: The stably transfected cell lines HEK293/pGM-CREB-L-Luc/GLP-1R pool, HEK293/pGM-CREB-L-Luc/GIPR pool, and 293HEK/pGM-CREB-L-Luc/GCGR pool were constructed. […] The corresponding test cells were digested (1 min), dispersed by pipetting, and centrifuged (1000 rpm, 5 min). The culture medium was discarded, and the cells were resuspended in freestyle medium, centrifuged again, collected, and counted. The cells were then diluted to a cell density of 5 x 10^5 cells/mL and then added to the detection wells of a 384-well plate (40 µL/20,000 cells/well). Echo was used to add the corresponding analyte dilution series. The cell plate was incubated at 37°C and 5% CO2 for 6 h, then ONE-GLO (20 µL/well) was added for detection. It was kept in the dark for 3 min, then a chemiluminescent microplate reader was used for determination. The plate was read within 30 min, and the determination results were recorded. […] Table 3: EC50 values for target peptide derivatives

GIPR = molecular target: T2, GIPR (Homo sapiens, UniProt P48546); experiment: CreLuc method (CRE-luciferase reporter), HEK293/pGM-CREB-L-Luc/GIPR pool; conditions: 6 h incubation, read-out: EC50 (pM) for each receptor GIPR
T2 construct: expressed in transfected cells
T2 sequence (P48546 22-466): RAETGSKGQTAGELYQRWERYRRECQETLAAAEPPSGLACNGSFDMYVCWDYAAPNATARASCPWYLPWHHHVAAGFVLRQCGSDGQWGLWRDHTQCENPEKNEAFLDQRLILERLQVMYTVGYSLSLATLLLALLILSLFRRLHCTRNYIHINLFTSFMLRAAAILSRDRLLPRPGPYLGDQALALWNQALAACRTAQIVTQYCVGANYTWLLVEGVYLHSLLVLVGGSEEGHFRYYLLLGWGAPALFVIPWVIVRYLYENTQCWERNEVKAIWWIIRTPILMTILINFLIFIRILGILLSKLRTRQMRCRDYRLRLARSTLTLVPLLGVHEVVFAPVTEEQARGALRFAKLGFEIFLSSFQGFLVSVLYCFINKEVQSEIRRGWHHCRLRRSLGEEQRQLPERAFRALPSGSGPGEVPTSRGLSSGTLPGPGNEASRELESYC
Experimental: as §1

GCGR = molecular target: T3, GCGR (Homo sapiens, UniProt P47871); experiment: CreLuc method (CRE-luciferase reporter), 293HEK/pGM-CREB-L-Luc/GCGR pool; conditions: 6 h incubation, read-out: EC50 (pM) for each receptor GCGR
T3 construct: expressed in transfected cells
T3 sequence (P47871 26-477, species assumed): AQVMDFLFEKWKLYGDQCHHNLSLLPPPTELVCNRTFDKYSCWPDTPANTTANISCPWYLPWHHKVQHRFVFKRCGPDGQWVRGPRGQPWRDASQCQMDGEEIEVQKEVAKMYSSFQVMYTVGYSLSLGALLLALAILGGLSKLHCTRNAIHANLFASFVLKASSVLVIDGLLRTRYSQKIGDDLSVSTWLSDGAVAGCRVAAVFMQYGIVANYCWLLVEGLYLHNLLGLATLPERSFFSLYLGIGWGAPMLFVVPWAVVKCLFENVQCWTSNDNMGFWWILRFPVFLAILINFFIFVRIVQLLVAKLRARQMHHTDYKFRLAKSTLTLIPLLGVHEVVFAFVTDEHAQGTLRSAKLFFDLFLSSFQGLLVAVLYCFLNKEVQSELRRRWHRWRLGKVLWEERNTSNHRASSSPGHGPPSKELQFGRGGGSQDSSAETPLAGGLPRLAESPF
Experimental: as §1

| Compound | EC50 (GLP-1R) [pM] | EC50 (GIPR) [pM] | EC50 (GCGR) [pM] |
| --- | --- | --- | --- |
| CC[C@H](C)[C@H](NC(=O)[C@H](CO)NC(=O)[C@H](Cc1ccc(O)cc1)NC(=O)[C@H](CC(=O)O)NC(=O)[C@H](CO)NC(=O)[C@@H](NC(=O)[C@H](Cc1ccccc1)NC(=O)[C@@H](NC(=O)CNC(=O)[C@H](Cc1c[nH]cn1)NC(=O)C(C)(C)NC(=O)[C@@H](N)Cc1c[nH]cn1)[C@@H](C)O)[C@@H](C)O)C(=O)N[C@@H](Cc1ccc(O)cc1)C(=O)N[C@H]1CSCC(=O)NCCN(C(=O)CCC(=O)NCCOCCOCC(=O)NCCOCCOCC(=O)NCCCC[C@H](NC(=O)CCCCCCCCCCCCCCCCCCC(=O)O)C(=O)O)CCNC(=O)CSC[C@@H](C(=O)N[C@@H](Cc2ccccc2)C(=O)N[C@H](C(=O)N[C@@H](CCC(N)=O)C(=O)N[C@@H](Cc2c[nH]c3ccccc23)C(=O)N[C@@H](CC(C)C)C(=O)N[C@@H](CC(C)C)C(=O)N[C@@H](CCC(=O)O)C(=O)NCC(=O)NCC(=O)N2CCC[C@H]2C(=O)N[C@@H](CO)C(=O)N[C@@H](CO)C(=O)NCC(=O)N[C@@H](C)C(=O)N2CCC[C@H]2C(=O)N2CCC[C@H]2C(=O)N2CCC[C@H]2C(=O)N[C@@H](CO)C(N)=O)C(C)C)NC(=O)C(C)(C)NC(=O)[C@H](C)NC(=O)[C@H](Cc2ccc(O)cc2)NC(=O)[C@H](CCCNC(=N)N)NC(=O)[C@H](CCCCN)NC(=O)[C@H](CCC(=O)O)NC1=O [TG8] | 243 | 426 | 836 |
| CC(=O)NCCCC[C@H](NC(=O)[C@H](CCC(=O)O)NC(=O)[C@H](CC(C)C)NC(=O)[C@H](Cc1ccc(O)cc1)NC(=O)[C@H](CCCCN)NC(=O)[C@H](CO)NC(=O)[C@H](Cc1ccc(O)cc1)NC(=O)[C@H](CC(=O)O)NC(=O)[C@H](CO)NC(=O)[C@@H](NC(=O)[C@H](Cc1ccccc1)NC(=O)[C@@H](NC(=O)CNC(=O)[C@H](Cc1c[nH]cn1)NC(=O)C(C)(C)NC(=O)[C@@H](N)Cc1c[nH]cn1)[C@@H](C)O)[C@@H](C)O)C(=O)N[C@@H](CCCCN)C(=O)N[C@@H](Cc1ccc(O)cc1)C(=O)N[C@@H](C)C(=O)NC(C)(C)C(=O)N[C@H]1CSCC(=O)NCCN(C(=O)CCC(=O)NCCOCCOCC(=O)NCCOCCOCC(=O)NCCCC[C@H](NC(=O)CCCCCCCCCCCCCCCCCCC(=O)O)C(=O)O)CCNC(=O)CSC[C@@H](C(=O)NCC(=O)NCC(=O)N2CCC[C@H]2C(=O)N[C@@H](CO)C(=O)N[C@@H](CO)C(=O)NCC(=O)N[C@@H](C)C(=O)N2CCC[C@H]2C(=O)N2CCC[C@H]2C(=O)N2CCC[C@H]2C(=O)N[C@@H](CO)C(N)=O)NC(=O)[C@H](CC(C)C)NC(=O)[C@H](CC(C)C)NC(=O)[C@H](Cc2c[nH]c3ccccc23)NC(=O)[C@H](CCC(N)=O)NC(=O)[C@H](C(C)C)NC(=O)[C@H](Cc2ccccc2)NC1=O [TG14] (H-H[Aib]HGTFTSDYSKYLEK(Ac)KYA[Aib]CFVQWLLCGGPSSGAPPPS-NH2; linker 21-28 via X1) | 311 | 752 | 277 |
| CC[C@H](C)[C@@H]1NC(=O)[C@H](Cc2ccccc2)NC(=O)[C@@H](NC(=O)C(C)(C)NC(=O)[C@H](CCC(N)=O)NC(=O)[C@H](C)NC(=O)[C@H](CCCCNC(C)=O)NC(=O)[C@H](CCCCN)NC(=O)[C@H](CC(=O)O)NC(=O)[C@H](CC(C)C)NC(=O)[C@](C)(CC(C)C)NC(=O)[C@@H](NC(=O)[C@H](CO)NC(=O)[C@H](Cc2ccc(O)cc2)NC(=O)[C@H](CC(=O)O)NC(=O)[C@H](CO)NC(=O)[C@@H](NC(=O)[C@H](Cc2ccccc2)NC(=O)[C@@H](NC(=O)CNC(=O)[C@H](CCC(N)=O)NC(=O)[C@@H](CO)NC(=O)[C@@H](N)Cc2ccc(O)cc2)[C@@H](C)O)[C@@H](C)O)[C@@H](C)CC)CSCC(=O)NCCN(C(=O)CCC(=O)NCCOCCOCC(=O)NCCOCCOCC(=O)NCCCC[C@H](NC(=O)CCCCCCCCCCCCCCCCCCC(=O)O)C(=O)O)CCNC(=O)CSC[C@@H](C(=O)NCC(=O)NCC(=O)N2CCC[C@H]2C(=O)N[C@@H](CO)C(=O)N[C@@H](CO)C(=O)NCC(=O)N[C@@H](C)C(=O)N2CCC[C@H]2C(=O)N2CCC[C@H]2C(=O)N2CCC[C@H]2C(=O)N[C@@H](CO)C(N)=O)NC(=O)[C@H](CC(C)C)NC(=O)[C@H](CC(C)C)NC(=O)[C@H](Cc2ccc(O)cc2)NC(=O)[C@H](CCC(=O)O)NC1=O [TG22] (H-Y[dS]QGTFTSDYSI[αMeL]LDKK(Ac)AQ[Aib]CFIEYLLCGGPSSGAPPPS-NH2; linker 21-28 via X1) | 665 | 18.3 | 205 |
| CC[C@H](C)[C@@H]1NC(=O)[C@H](Cc2ccccc2)NC(=O)[C@@H](NC(=O)C(C)(C)NC(=O)[C@H](CCC(N)=O)NC(=O)[C@H](C)NC(=O)[C@H](CCCCNC(C)=O)NC(=O)[C@H](CCCCN)NC(=O)[C@H](CC(=O)O)NC(=O)[C@H](CC(C)C)NC(=O)[C@](C)(CC(C)C)NC(=O)[C@@H](NC(=O)[C@H](CO)NC(=O)[C@H](Cc2ccc(O)cc2)NC(=O)[C@H](CC(=O)O)NC(=O)[C@H](CO)NC(=O)[C@@H](NC(=O)[C@](C)(Cc2ccccc2)NC(=O)[C@@H](NC(=O)CNC(=O)[C@H](CCC(N)=O)NC(=O)C(C)(C)NC(=O)[C@@H](N)Cc2ccc(O)cc2)[C@@H](C)O)[C@@H](C)O)[C@@H](C)CC)CSCC(=O)NCCN(C(=O)CCC(=O)NCCOCCOCC(=O)NCCOCCOCC(=O)NCCCC[C@H](NC(=O)CCCCCCCCCCCCCCCCCCC(=O)O)C(=O)O)CCNC(=O)CSC[C@@H](C(=O)NCC(=O)NCC(=O)N2CCC[C@H]2C(=O)N[C@@H](CO)C(=O)N[C@@H](CO)C(=O)NCC(=O)N[C@@H](C)C(=O)N2CCC[C@H]2C(=O)N2CCC[C@H]2C(=O)N2CCC[C@H]2C(=O)N[C@@H](CO)C(N)=O)NC(=O)[C@H](CC(C)C)NC(=O)[C@H](CC(C)C)NC(=O)[C@H](Cc2ccc(O)cc2)NC(=O)[C@H](CCC(=O)O)NC1=O [TG23] | 92.9 | 75.6 | 109 |
| CC[C@H](C)[C@@H]1NC(=O)[C@H](Cc2ccccc2)NC(=O)[C@@H](NC(=O)C(C)(C)NC(=O)[C@H](CCC(N)=O)NC(=O)[C@H](C)NC(=O)[C@H](CCCCNC(C)=O)NC(=O)[C@H](CCCCN)NC(=O)[C@H](CC(=O)O)NC(=O)[C@H](CC(C)(C)C)NC(=O)[C@](C)(CC(C)C)NC(=O)[C@@H](NC(=O)[C@H](CO)NC(=O)[C@H](Cc2ccc(O)cc2)NC(=O)[C@H](CC(=O)O)NC(=O)[C@H](CO)NC(=O)[C@@H](NC(=O)[C@H](Cc2ccccc2)NC(=O)[C@@H](NC(=O)CNC(=O)[C@H](CCC(N)=O)NC(=O)C(C)(C)NC(=O)[C@@H](N)Cc2ccc(O)cc2)[C@@H](C)O)[C@@H](C)O)[C@@H](C)CC)CSCC(=O)NCCN(C(=O)CCC(=O)NCCOCCOCC(=O)NCCOCCOCC(=O)NCCCC[C@H](NC(=O)CCCCCCCCCCCCCCCCCCC(=O)O)C(=O)O)CCNC(=O)CSC[C@@H](C(=O)NCC(=O)NCC(=O)N2CCC[C@H]2C(=O)N[C@@H](CO)C(=O)N[C@@H](CO)C(=O)NCC(=O)N[C@@H](C)C(=O)N2CCC[C@H]2C(=O)N2CCC[C@H]2C(=O)N2CCC[C@H]2C(=O)N[C@@H](CO)C(N)=O)NC(=O)[C@H](CC(C)C)NC(=O)[C@H](CC(C)C)NC(=O)[C@H](Cc2ccc(O)cc2)NC(=O)[C@H](CCC(=O)O)NC1=O [TG26] (H-Y[Aib]QGTFTSDYSI[αMeL][tBuAla]DKK(Ac)AQ[Aib]CFIEYLLCGGPSSGAPPPS-NH2; linker 21-28 via X1) | 149 | 59.4 | 360 |
